Measurements published in ChEMBL document CHEMBL1156733, “Structure-activity relationship studies on a series of piperazinebenzylalcohols and their ketone and amine analogs as melanocortin-4 receptor ligands” (Bioorg Med Chem Lett, 2008).

Key:
[1] = target: T1, Melanocortin receptor 4 (Homo sapiens, UniProt P32245)
[2] = target: T1, Melanocortin receptor 4; assay: Antagonist activity at human MC4 receptor expressed in cells assessed as inhibition of alpha-MSH-stimulated cAMP production; assay type: functional, cell-based
[3] = target: Melanocortin receptor 5 (Homo sapiens, UniProt P33032); assay: Binding affinity to MC5 receptor
[4] = system: Melanocortin receptor 1 (Homo sapiens); assay: Inhibition of human MC1 receptor at 10 uM
[5] = target: Melanocortin receptor 3 (Homo sapiens, UniProt P41968); assay: Binding affinity to MC3 receptor
[6] = organism: Homo sapiens; assay: Selectivity for human MC4 receptor over human MC4 receptor Asp122Ala mutant
[7] = target: Melanocortin receptor 4 (Homo sapiens, UniProt P32245, D122A); assay: Binding affinity to human MC4 receptor Asp122Ala mutant
[8] = Metabolic stability assessed as intrinsic clearance in human liver microsomes; assay type: ADME, Microsome
[9] = Lipophilicity, log D of the compound; assay type: physicochemical; conditions: octanol/water

Melanocortin receptor 4 (Homo sapiens, UniProt P32245, D122A), sequence (P32245 whole entry D122A): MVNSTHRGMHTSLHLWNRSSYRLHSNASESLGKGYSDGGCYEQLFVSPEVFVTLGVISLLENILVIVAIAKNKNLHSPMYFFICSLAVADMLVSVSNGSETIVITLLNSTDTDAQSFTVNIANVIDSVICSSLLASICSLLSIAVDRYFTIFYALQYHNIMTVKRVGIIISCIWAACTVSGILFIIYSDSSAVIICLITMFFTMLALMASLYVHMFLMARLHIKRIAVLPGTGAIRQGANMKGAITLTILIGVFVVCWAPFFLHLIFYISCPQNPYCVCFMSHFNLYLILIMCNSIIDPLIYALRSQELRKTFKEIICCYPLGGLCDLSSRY
Melanocortin receptor 5, sequence (P33032 whole entry): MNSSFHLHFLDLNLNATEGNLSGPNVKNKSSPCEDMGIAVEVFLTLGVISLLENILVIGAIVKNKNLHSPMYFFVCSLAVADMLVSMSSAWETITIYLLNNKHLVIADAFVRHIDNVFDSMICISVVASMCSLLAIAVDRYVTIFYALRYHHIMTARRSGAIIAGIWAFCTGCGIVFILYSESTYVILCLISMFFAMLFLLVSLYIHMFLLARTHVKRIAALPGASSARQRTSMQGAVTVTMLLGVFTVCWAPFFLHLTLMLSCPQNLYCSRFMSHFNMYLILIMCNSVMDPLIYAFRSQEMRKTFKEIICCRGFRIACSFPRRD
T1 sequence (P32245 whole entry): as the sequence (P32245 whole entry D122A) above, with A122D counted along it
Melanocortin receptor 3, sequence (P41968 whole entry): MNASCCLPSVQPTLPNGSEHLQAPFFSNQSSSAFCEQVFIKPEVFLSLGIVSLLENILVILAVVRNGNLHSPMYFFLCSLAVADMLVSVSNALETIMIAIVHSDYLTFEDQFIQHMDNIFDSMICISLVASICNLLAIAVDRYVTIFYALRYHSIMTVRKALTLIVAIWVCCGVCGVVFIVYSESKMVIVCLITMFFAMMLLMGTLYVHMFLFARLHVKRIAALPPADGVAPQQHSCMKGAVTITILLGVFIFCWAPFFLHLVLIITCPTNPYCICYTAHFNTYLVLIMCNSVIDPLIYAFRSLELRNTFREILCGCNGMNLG

SMILES	Ki [1]	further results
CC(C)CC(=O)c1ccccc1N1CCN(C(=O)[C@@H](Cc2ccc(Cl)cc2Cl)NC(=O)CN)CC1	33 nM	–
CNC(C)(C)C(=O)N[C@H](Cc1ccc(Cl)cc1Cl)C(=O)N1CCN(c2ccccc2C(N)CC(C)C)CC1 (stereo partly drawn)	4.7 nM	–
CC(C)CC(O)c1ccccc1N1CCN(C(=O)[C@@H](Cc2ccc(Cl)cc2Cl)NC(=O)CN(C)C)CC1 (stereo partly drawn)	9.6 nM	IC50 [2]: 250 nM; Ki [3]: 1300 nM; inhibition [4]: 36%; Ki [5]: 3100 nM
CCCC(O)c1ccccc1N1CCN(C(=O)[C@@H](Cc2ccc(Cl)cc2Cl)NC(=O)CCN)CC1 (stereo partly drawn)	26 nM	–
CC(C)CC(=O)c1ccccc1N1CCN(C(=O)[C@@H](Cc2ccc(Cl)cc2Cl)NC(C)C)CC1	560 nM	–
CCC(O)(CC)c1ccccc1N1CCN(C(=O)[C@@H](Cc2ccc(Cl)cc2Cl)NC(=O)C(C)(C)N)CC1	38 nM	–
CNCC(=O)N[C@H](Cc1ccc(Cl)cc1Cl)C(=O)N1CCN(c2ccccc2C(O)CC(C)C)CC1 (stereo partly drawn)	8.3 nM	IC50 [2]: 420 nM; Ki [3]: 1800 nM; fold change (FC) [6]: 60; inhibition [4]: 34%; Ki [7]: 500 nM; Ki [5]: 2500 nM
CC(C)C[C@@H](O)c1ccccc1N1CCN(C(=O)[C@@H](Cc2ccc(Cl)cc2Cl)NC(=O)CN)CC1	9 nM	–
COc1ccccc1CC(O)c1ccccc1N1CCN(C(=O)[C@@H](Cc2ccc(Cl)cc2Cl)NC(=O)CCN)CC1 (stereo partly drawn)	66 nM	–
CC(C)CC(O)c1ccccc1N1CCN(C(=O)[C@@H](Cc2ccc(Cl)cc2Cl)NC(=O)CN)CC1 (stereo partly drawn)	13 nM	–
CCCCN(CCCC)[C@H](Cc1ccc(Cl)cc1Cl)C(=O)N1CCN(c2ccccc2C(O)CC(C)C)CC1 (stereo partly drawn)	1400 nM	–
CC(C)CC(=O)c1ccccc1N1CCN(C(=O)[C@@H](Cc2ccc(Cl)cc2Cl)NC(=O)CCN)CC1	24 nM	IC50 [2]: 650 nM; Ki [3]: 330 nM; inhibition [4]: 42%; CLint scaled [8]: 18.4 mL/min/kg; Ki [5]: 2300 nM; logD [9]: 2.4
CCCCCN(CCCCC)[C@H](Cc1ccc(Cl)cc1Cl)C(=O)N1CCN(c2ccccc2C(=O)CC(C)C)CC1	5800 nM	–
CC(C)CC(O)c1ccccc1N1CCN(C(=O)[C@@H](Cc2ccc(Cl)cc2Cl)NC(=O)C(C)(C)N)CC1 (stereo partly drawn)	46 nM	–
CNCC(=O)N[C@H](Cc1ccc(Cl)cc1Cl)C(=O)N1CCN(c2ccccc2C(=O)CC(C)C)CC1	31 nM	fold change (FC) [6]: 9; Ki [7]: 290 nM
CC(C)CC(=O)c1ccccc1N1CCN(C(=O)[C@@H](Cc2ccc(Cl)cc2Cl)NC(=O)C(C)(C)N)CC1	110 nM	–
CC(C)C(O)c1ccccc1N1CCN(C(=O)[C@@H](Cc2ccc(Cl)cc2Cl)NC(=O)CCN)CC1 (stereo partly drawn)	110 nM	–

SMILES	Ki [1]	further results
CCC(O)(CC)c1ccccc1N1CCN(C(=O)[C@@H](Cc2ccc(Cl)cc2Cl)NC(=O)NC2CC2)CC1	42 nM	–
CCC(O)(CC)c1ccccc1N1CCN(C(=O)[C@@H](Cc2ccc(Cl)cc2Cl)NC(=O)[C@@H](C)N)CC1	65 nM	–
CCCC(C)(O)c1ccccc1N1CCN(C(=O)[C@@H](Cc2ccc(Cl)cc2Cl)NC(=O)CCN)CC1 (stereo partly drawn)	11 nM	–
CC(C)CC(O)c1ccccc1N1CCN(C(=O)[C@H](N)Cc2ccc(Cl)cc2Cl)CC1 (stereo partly drawn)	280 nM	–
CC(C)CC(N)c1ccccc1N1CCN(C(=O)[C@@H](Cc2ccc(Cl)cc2Cl)N(Cc2ccccn2)Cc2ccccn2)CC1 (stereo partly drawn)	2 nM	–
CC(C)CC(=O)c1ccccc1N1CCN(C(=O)[C@@H](Cc2ccc(Cl)cc2Cl)NCC2CCOC2)CC1 (stereo partly drawn)	150 nM	–
CNCC(=O)N[C@H](Cc1ccc(Cl)cc1Cl)C(=O)N1CCN(c2ccccc2C(N)CC(C)C)CC1 (stereo partly drawn)	1.7 nM	fold change (FC) [6]: 58; Ki [7]: 99 nM
CC(C)CC(O)c1ccccc1N1CCN(C(=O)[C@@H](Cc2ccc(Cl)cc2Cl)N(CC(C)C)CC(C)C)CC1 (stereo partly drawn)	> 10000 nM	–
CCC(O)(CC)c1ccccc1N1CCN(C(=O)[C@@H](Cc2ccc(Cl)cc2Cl)NC(=O)N2CCCC2=O)CC1	110 nM	–
CC(C)CC(N)c1ccccc1N1CCN(C(=O)[C@@H](Cc2ccc(Cl)cc2Cl)NC(=O)[C@H](C)N)CC1 (stereo partly drawn)	4.2 nM	–
CSCCCN[C@H](Cc1ccc(Cl)cc1Cl)C(=O)N1CCN(c2ccccc2C(=O)CC(C)C)CC1	230 nM	–
CCC(O)(CC)c1ccccc1N1CCN(C(=O)[C@@H](Cc2ccc(Cl)cc2Cl)NC(=O)CNC)CC1	13 nM	–
CCC(O)(CC)c1ccccc1N1CCN(C(=O)[C@@H](Cc2ccc(Cl)cc2Cl)NC(=O)CN(C)C)CC1	9.4 nM	IC50 [2]: 400 nM; Ki [3]: 950 nM; inhibition [4]: 34%; Ki [5]: 3100 nM
CC(C)CC(O)c1ccccc1N1CCN(C(=O)[C@@H](Cc2ccc(Cl)cc2Cl)N(Cc2ccccn2)Cc2ccccn2)CC1 (stereo partly drawn)	83 nM	–
COc1ccc(CCC(O)c2ccccc2N2CCN(C(=O)[C@@H](Cc3ccc(Cl)cc3Cl)NC(=O)CCN)CC2)cc1 (stereo partly drawn)	23 nM	–
CC(C)CC(N)c1ccccc1N1CCN(C(=O)[C@@H](Cc2ccc(Cl)cc2Cl)N(CC2CC2)CC2CC2)CC1 (stereo partly drawn)	350 nM	–
CC(C)CC(N)c1ccccc1N1CCN(C(=O)[C@@H](Cc2ccc(Cl)cc2Cl)NC(C)C)CC1 (stereo partly drawn)	53 nM	–
